This passage reports melting point results from a melting point compilation (Tetko et al.; mined from patent text by program, amines drawn as free bases though some values may be those of a salt).

The compound `CC(=O)c1ccc2c(c1)-c1ccccc1-2` came in with a melting point of 134 to 135 °C.

On to `Cc1[nH]c2ccccc2c1C(=O)NC1CCN(Cc2ccccc2)CC1`, for which the melting point was in the range of 150 to 153 °C.

Turning to `c1ccc2c(c1)CCN(Cc1nc3ccccc3[nH]1)C2`, the melting point lay within 184 to 186 °C.

As for `CC(N=c1[nH]c(-c2ccccc2)c(-c2ccnc(Nc3ccccc3)n2)s1)N(C)C` (stereo unspecified), the melting point lay within 196 to 197 °C. `N=C(N)c1ccc(O)c([N+](=O)[O-])c1` showed a melting point greater than 240 °C. `COc1cc(C(OC(C)=O)C(COC(C)=O)[N+](=O)[O-])ccc1OC(C)=O` (stereo unspecified) showed a melting point of 97 to 100 °C. On to `Cc1nnc2n1-c1ccc(Br)cc1C(c1ccccc1F)=NC2NC(=O)OCc1ccccc1` (stereo unspecified), for which the melting point was in the range of 160 to 170 °C. Next, `ON1CCC2(CC1)OC(c1ccccc1)c1ccccc12` (stereo unspecified): 184 to 187 °C. As to `CCCCCCOC(=O)c1nc2cc(Cl)ccc2o1`, the melting point lay in the range of 42 to 43 °C. Next, `Cc1cccc(COc2cccc(OCc3ccc4cc(F)c(F)cc4n3)c2)c1OCC(=O)O`: 94 to 95 °C; `CCCOC1(C=O)C=CCC(OC)(N2CCC(c3noc4cc(F)ccc34)CC2)C1O` (stereo unspecified): 107 to 108 °C; `CCCCCC(=O)CCC1CCC(CCCCCCCC(=O)O)O1` (stereo unspecified): 26 to 28 °C.

For the compound `CC(C)(COc1ccc(Cl)cc1)C(=O)Cn1cncn1`, the melting point is 88 to 90 °C. In turn, `COC(=O)c1cc(C)sc1S(N)(=O)=O` gave a melting point of 137 to 138 °C.

`O=C(Nc1ccc(CN2C(=O)C3CCCC3N(C(=O)CN3C(=O)c4ccccc4C3=O)c3ccccc32)cc1)c1ccc2ccccc2c1` (stereo unspecified) had a melting point of 191 to 194 °C. The compound `COc1ccc(C(=O)Cc2c(Cl)cncc2Cl)c2c1OC1(CCCC1)O2` registered a melting point of 110 to 112 °C.

With `Cc1nc(N)c([N+](=O)[O-])cc1Cl`, the melting point fell in the range of 214 to 215 °C. For the compound `CC1(C)OCCCOc2c[nH]cc2OCCCOC1(C)C`, the melting point lay in the range of 48 to 50 °C. `O=[N+]([O-])c1cc(Cl)cc(C(O)c2cc(Cl)cc([N+](=O)[O-])c2O)c1O`: the melting point is 180 °C. As to `CCCC(=O)C(=O)NCC(=O)c1cccnc1`, the melting point is 80 to 82 °C. The compound `CN1CCCCC1CNC(=O)Nc1cc(OCC(F)(F)F)ccc1OCC(F)(F)F` (stereo unspecified) returned a melting point of 123 to 126 °C.

In turn, `CC1CC=C(N(C)c2ccccc2)c2ncc(C(=O)O)c(=O)n21` (stereo unspecified) displayed a melting point of 170 to 171 °C. Take `CCCCCCCCCCCCCCC(=O)CCl`: the melting point lay within 52.5 to 53.5 °C.

Compound `COc1cc2nc(N3CCN(C(=O)C=Cc4ccc(Cl)c(Cl)c4)CC3)nc(N)c2cc1OC` yielded a melting point of 196 to 198 °C. With `CC(C)(C)[C@@H]1OC(=O)[C@@H]2[C@H]1C2(C)C`, the melting point was found to be 113 °C. Compound `CCOCc1nc2c(N)nc3cc(Br)cnc3c2n1CCCON=C(C)C` registered a melting point of 128 to 130 °C. The result for `COc1ccc2cnc(=O)[nH]c2c1C1CCCC1` reads 201 to 204 °C; that for `OCCC1c2ccccc2-c2ccccc21`, 97 °C; that for `Cc1nccn1-c1nc(NCc2ccccc2)c2ccccc2n1`, 182 to 186 °C.

Turning to `Cc1nc(-c2cc(C)c(OCCCc3cc(C(F)(F)F)no3)c(C)c2)no1`, the melting point was 62 to 64.5 °C. Consider `Clc1cccc(Cl)c1-c1nc(-c2ccccc2)c(-c2ccccc2)[nH]1`, for which the melting point fell in the range of 125 to 127 °C. Next, `COC(=O)c1ccc(Cc2cn(C(C)C)c3ccc(C=C(C)C(=O)O)cc23)c(OC)c1`: 143 to 145 °C.

In the case of `CCC(CC)c1ccc(C(=O)OC)c2nc(Oc3c(C)cc(Cl)cc3Cl)n(C)c12`, the melting point was in the range of 177 to 178 °C. For the compound `OC(c1cc(F)ccc1F)c1ccncc1Cl` (stereo unspecified), the melting point fell in the range of 169 to 170 °C. Turning to `CCC1C(C)=NN=C(c2ccc(OC)c(O)c2)c2cc(O)c(OC)cc21` (stereo unspecified), the melting point lay within 143 to 145 °C. As for `Cc1ccc(F)c(CSc2nc(N[C@H](C)CO)c3ncc(=O)[nH]c3n2)c1`, the melting point is 202 to 204 °C. As to `CCOC(=O)c1sc(Cn2cc(Cl)cnc2=O)nc1C`, the melting point was in the range of 169 to 171 °C. In turn, `CN(C)CC=Cc1ccc2c(c1)CCCN2C(=O)c1ccc(-c2ccc(Cl)cc2)cc1` had a melting point of 162 to 164 °C. The compound `CNC(=O)C1=CC(CF)(CF)Oc2ccccc21` had a melting point of 138 to 139 °C.

For `COc1ccc(S(=O)(=O)C(Nc2c(Br)cc(C)cc2C(=O)O)c2cccnc2)cc1` (stereo unspecified), the melting point stood at 198 °C. `COc1ccc(Cn2c3c(c4cc(F)cc(F)c42)CCCC3CC(=O)O)cc1` (stereo unspecified) returned a melting point of 149 to 151 °C. Next, `CCC(c1oc2ccccc2c(=O)c1-c1ccccc1F)n1cnc2c(N)ncnc21` (stereo unspecified): 160 to 163 °C; `C=C(C(=O)c1c(OC)ccc(-c2cccs2)c1OC)c1ccc(C(=O)O)cc1`: 193 to 195 °C. Take `CC(=O)OC(C)c1cccc2cc(C(C)=O)oc12` (stereo unspecified): the melting point is 82 to 83 °C. Next, `O=C(/C=C/c1cccc(S(=O)(=O)N2CCN(Cc3ccccc3)CC2)c1)NO`: 185 °C. Next, `O=S(=O)(Cl)c1ccc2ccc(Br)cc2c1`: 100 to 101 °C; `COC(=O)C(N)(CF)Cc1ccc(O)cc1` (stereo unspecified): 130 °C; `COc1cc2c(cc1OC)-c1c(OC)c(OC)cc3ccnc(c13)C2=O`: 229 to 230 °C.

Consider `COc1ccc(C(O)CN2CCNC2=S)cc1` (stereo unspecified), for which the melting point was found to be 110 °C.

For the compound `O=[N+]([O-])c1c(CBr)cccc1Oc1ccccc1Cl`, the melting point was in the range of 68 to 70 °C. The result for `CC(S)C(=O)NCCS` (stereo unspecified) reads 53 °C. `CCOC(=O)Nc1cn2nc(OCc3cc(OC)ccc3OC)ccc2n1` came in with a melting point of 210 to 211 °C. The result for `CC(CS)C(=O)N1CCCC1C(=O)NC(C)C(=O)O` (stereo unspecified) reads 128 to 130 °C. Next, `CS(=O)(=O)CCC(C#N)CC#N` (stereo unspecified): 123 to 125 °C. The compound `CC(C)(C)OC(=O)N1CCN(C(=O)Nc2ccccc2)CC1` had a melting point of 168 to 169 °C. In turn, `CC12CCC3C4CCC(=O)C=C4CCC3C1CCC2CO` (stereo unspecified) showed a melting point of 115 to 118 °C.

Take `CNC(=O)ON(C(=O)NC)C(=O)C(C)(C)C`: the melting point lay in the range of 117 to 119 °C. Next, `N#Cc1cccc(-c2nc(Nc3cnccn3)sc2-n2cncn2)c1`: greater than 250 °C; `C[C@H](NC(=O)Nc1cccc(CC(=O)O)c1)C(=O)N1[C@@H](c2ccccc2F)SC[C@H]1C(=O)OC(C)(C)C`: 110 °C. The result for `O=C(O)c1ccc2c(c1)COCC2` reads 140 to 142 °C; that for `COc1ccc(S(=O)(=O)N(C)C)c(S(N)(=O)=O)c1`, 106 to 109 °C. With `CCCN(CCC)C(=O)C(CCC(=O)NC)NC(=O)OCc1ccccc1` (stereo unspecified), the melting point was in the range of 75 to 76 °C. The compound `O=c1oc2c3ccccc3ccc2c2occc12` displayed a melting point of 198 to 200 °C. Consider `CCOC(=O)C1=C(N)NC(N)=C(C(=O)OCC)C1c1cccc(C(=O)OCC)c1`, for which the melting point was found to be 191 °C.

On to `NC(=O)c1ncn2c1[C@@H]1CCCN1C(=O)c1c-2ccc(F)c1F`, for which the melting point lay in the range of 221 to 224 °C. The compound `O=C(O)Cc1ccccc1Oc1cccc(F)c1` returned a melting point of 81 to 84 °C. The result for `S=c1nc(-c2cccnc2Cl)[nH]n1Cc1ccccc1` reads 155 to 156 °C; that for `COC(=O)c1cc(C)c(C(OC(=O)C(C)NS(=O)(=O)c2ccc(C)cc2)c2cc(-n3ccnc3)ccc2C)c(C)c1` (stereo unspecified), 103 to 105 °C; that for `COc1c(Br)csc1C(=O)O`, 191 to 192 °C.

In turn, `COc1cccc(OC)c1C(=O)Oc1cc([N+](=O)[O-])cc([N+](=O)[O-])c1O` showed a melting point of 217 to 218 °C. Compound `CCOP(=O)(CC(=O)Nc1cc2c(Nc3ccc(OCc4ccccn4)c(Cl)c3)ncnc2cn1)OCC` came in with a melting point of 113 to 116 °C. Next, `OC[C@H]1COc2cc(Cl)ccc2O1`: 73 to 75 °C. Turning to `COC(=O)[C@H](Cc1c(Br)n(C(=O)OC(C)(C)C)c2cc(Br)c(OC)c(Br)c12)NC(C)=O`, the melting point is 126 to 128 °C. Next, `CCOC(=O)COc1ccc2cc(-c3cc4ccccc4o3)ccc2c1Cl`: 140 to 142 °C. Compound `O=C(NCc1ccccc1Br)c1ccc2cnccc2n1` displayed a melting point of 129 to 130 °C.

Consider `N#CC(C(N)=S)=C(N)N1CCCC1`, for which the melting point is 164 °C. The compound `O=C(O)[C@@H](Cc1ccccc1)Oc1c(Br)cc(-c2c3ccccc3c(C(F)(F)F)c3sc4ccccc4c23)cc1Br` returned a melting point of 109 to 143 °C. Next, `C[C@@H](S[C@H]1CO[C@H](/C=C/C=C/c2ccc(OCC(F)(F)C(F)F)cc2)OC1)[C@](O)(Cn1cncn1)c1ccc(F)cc1F`: 75 to 85 °C; `O=C(c1ccccc1)c1ccc(OCCCCCCBr)c(Cl)c1`: 58 °C; `COC(=O)CCn1cnc2c(Cl)ncnc21`: 93.5 °C. `CCCC(O)(CC)C(C)=NO` (stereo unspecified): the melting point came to 59 °C. With `COC(=O)CCCc1ccc(CNC(=O)C2Cc3ccccc3N2S(=O)(=O)c2ccc(-c3cccc(C(F)(F)F)c3)cc2)cc1` (stereo unspecified), the melting point stood at 55 °C. In turn, `COc1ccc(-c2cc3c(s2)c(=O)c(S(C)=O)cn3C)cc1` (stereo unspecified) yielded a melting point of 262 to 264 °C. The compound `CCCN1Cc2cscc2Nc2ccccc21` came in with a melting point of 78 to 79 °C. The compound `Cc1ccc(CCO)c(NCc2ccc3nc(NCCCN4CCOCC4)n(Cc4ncccc4O)c3c2)c1` showed a melting point of 192 °C. In turn, `CC12CCC(OC(=O)c3ccccc3)CC1=CCC1C2CCC2(C)C(=NO)CCC12` (stereo unspecified) returned a melting point of 165 to 170 °C.

Compound `O=C(NCC1CCCCCC1)NCC1CCCCCC1` had a melting point of 106 to 108 °C. Next, `Cc1c2c(c(-c3ccc(F)cc3)c3c4c(ccc13)OCO4)C(=O)NC2=O`: 302 to 304 °C; `O=C(Nc1ccc(CN2C(=O)[C@H]3CCC[C@H]3N(C(=O)CN3C(=O)c4ccccc4C3=O)c3ccccc32)cc1)c1cccc(F)c1` (relative stereo): 256 to 259 °C. The result for `N#CC1c2ccccc2COc2ccccc21` (stereo unspecified) reads 65 to 66.5 °C.

Compound `CCCCCCS(=O)(=O)c1ccc(S(=O)(=O)CCCCCC)nc1` showed a melting point of 135 to 136 °C.
